According to patent US20240139195A1, “METHODS OF TREATING CHRONIC ACTIVE ANTIBODY-MEDIATED REJECTION USING BTK INHIBITORS” (BeiGene Switzerland GmbH, priority 2021, published 2024):
Entries after “also recorded” stand apart in the source; their conditions may differ.

Legend:
[1] = tested on: T cells, B cells and plasma cells in peripheral blood; assay: Flow cytometry of T cells, B cells and plasma cells in rat peripheral blood; format: in vivo; conditions: 8 weeks after kidney transplantation
Protocol: PBMCs were doubly incubated with FITC-conjugated anti-CD45R (2.5 μg/10^6 cells; eBioscience, Thermo Fisher Scientific, USA) and APC-conjugated anti-CD19 (2 μg/10^6 cells; Bioss, China), FITC-conjugated anti-CD45R (2.5 μg/10^6 cells; eBioscience, Thermo Fisher Scientific, USA) and Alexa Fluor 647 (conjugated anti-CD138 (0.1 μg/10^6 cells; Abcam, USA), APC-conjugated anti-CD3 (3 μg/10^6 cells; BioLegend, USA) and FITC-conjugated anti-CD4 (0.5 μg/10^6 cells; BioLegend, USA) as well as APC-conjugated anti-CD3 (3 μg/10^6 cells; BioLegend, USA) and Percp-eFluor710-conjugated anti-CD8 (0.3 μg/10^6 cells; BioLegend, USA), respectively. The percentages of CD45R^+CD19^+B cells, CD45R^−CD138^+ plasma cells, and CD3^+CD4^+ and CD3^+CD8^+ T cells were determined by flow cytometry (BD Accuri C6, BD Biosciences).
In order to investigate the immune state of syngenetic and allogenic rats, flow cytometry was used to test the amounts of T cells, B cells, and plasma cells.

[2] = Renal function assessment (blood creatinine and urea nitrogen) after resection of native right kidney; format: in vivo, Lewis rats; conditions: allogeneic recipients, right kidney resected 10 days after transplantation, vs vehicle
Protocol: Concentrations of rat blood creatinine and urea nitrogen were tested by instructions of manufacturer of the kits (JianCheng, China).
(§1) After the resection of right kidney, the blood concentration of creatinine and urea nitrogen continued to deteriorate and reach the summit at 12 weeks after transplantation.

[3] = tested on: T cells, B cells, plasma cells and macrophages in allograft kidneys; conditions: 12 weeks after transplantation
Protocol: Recipients with phosphate buffered saline alone were considered as the vehicle control. At 4, 8, 12 and 16 weeks, organs were harvested and divided into two parts, which were fixed in paraffin or snap-frozen in N2 and stored at −80° C. Peripheral blood mononuclear cells (PBMCs) were separated from the rat peripheral blood to be used in flow cytometry.
Paraffin-embedded sections (4 m) were incubated with primary antibodies against anti-phospho-BTK (1:100; Santa Cruz, USA), C4d (1:200, BioLegend, USA) CD3 (1:200, BioLegend, USA), CD4 (1:200, BioLegend, USA), CD8 (1:200, BioLegend, USA), CD19 (1:200, Bioss, China), CD138 (1:100, Abcam) and CD68 (1:100, Abcam) overnight at 4° C. in a humidified chamber. The appropriate isotype-matched IgG was used as the negative control. […] Quantitative analysis of positive cells (T cells, B cells, plasma cell and macrophages) and IgG positive area was analyzed by using Image-Pro Plus (Media Cybernetics, Rockville, MD). Quantitative analysis of C4d positive PTC was performed according to outcomes of two independent pathologists blinded to the experimental design.

[4] = tested on: donor specific alloantibody (DSA); assay: Donor specific alloantibody (DSA) analysis by flow cytometry; format: in vivo, Lewis rats; conditions: allogeneic recipients, vs vehicle
Protocol: (§2) Left kidney transplantation was performed between male F344 and Lewis rats [Vogelbacher R, et al. Nephrology, dialysis, transplantation: official publication of the European Dialysis and Transplant Association—European Renal Association. 2010; 25: 3764-73.]. The average time of cold ischemia time and warm ischemia time was 25 and 40 minutes, respectively. In order to allow the production of alloantibodies, no immunosuppressive agents were used within the first 2 weeks after kidney transplantation.
Spleen lymphocytes of normal F344 rats were extracted using lymphocyte separation medium. Serum samples of allogeneic rats were incubated with spleen lymphocytes at room temperature for 30 minutes. Spleen lymphocytes were washed for three times and then incubated with a fluorescein isothiocyanate (FITC)-labeled anti-rat IgG antibody (BD Biosciences) at room temperature for 30 min. Mean fluorescence intensity (MFI) was determined in order to assess DSA levels by flow cytometry (Beckman DxFLEX, Beckman, Brea, CA) [Zhao D, et al. American journal of transplantation: official journal of the American Society of Transplantation and the American Society of Transplant Surgeons. 2018; 18: 1083-95; Liao T, et al. Frontiers in immunology. […]

[5] = Long-term survival of allogeneic kidney transplant recipients; format: in vivo, Lewis rats; conditions: right kidney resected 10 days after transplantation, vs vehicle, log-rank P<0.05
Description: as §1

renal allografts = assay: Histological examination of renal allografts (H&E, PAS, Masson staining) for severity of CAMR; format: in vivo, Lewis rats
Protocol: Left kidney transplantation was performed between male F344 and Lewis rats [Vogelbacher R, et al. Nephrology, dialysis, transplantation: official publication of the European Dialysis and Transplant Association—European Renal Association. 2010; 25: 3764-73.]. […] In order to allow the production of alloantibodies, no immunosuppressive agents were used within the first 2 weeks after kidney transplantation. […] Histological analysis was performed by using H&E, PAS and Masson staining. H&E, PAS and Masson trichome staining were performed as detailed elsewhere[Wang Z, et al. Journal of cellular and molecular medicine. 2017; 21: 2359-69.], which was used to evaluate the severity of CAMR. The diagnostic criteria of CAMR was according to Banff 2017 criteria. Characteristics of CAMR were defined as arterial intimal fibrosis, positive C4d staining in PTC and DSA. Measurement of arteriosclerosis caused by intimal fibrosis was performed for the areas surrounded by the luminal surface and internal elastic lamina of each vessel. The area determined by the internal elastic lamina subtraction of the internal elastic lamina to the luminal area was considered as the intimal area. Quantitative analysis the morphometric change of the kidney sections was performed according to results of two pathologists blinded to the experimental design independently.

[6] = tested on: C4d and IgG deposition in allograft kidney; assay: Immunofluorescence staining of C4d and IgG deposition in allograft kidney; format: in vivo, Lewis rats; conditions: 2 mg/kg
Protocol: as §2

[7] = tested on: TNF-α, TGF-β, IL-17A, IL-35, IL-10; assay: ELISA of rat serum cytokines; format: in vivo; conditions: 12 weeks after kidney transplantation, allogeneic recipients vs vehicle
Protocol: The levels of rat serum TNF-α, TGF-β, IL-17A, IL-35, IL-10 were quantified by rat TNF-α ELISA kit (MUTISCIENCES; China), rat TGF-β ELISA kit (MUTISCIENCES; China), rat IL-35 ELISA kit (MUTISCIENCES; China), rat IL-17A ELISA kit (MUTISCIENCES; China) and rat IL-10 ELISA kit (MUTISCIENCES; China), respectively. The assays were performed as described in the manufacturer's instructions.
At 12 weeks after kidney transplantation, serum isolated from rat peripheral blood was used to detect the concentration of inflammatory cytokines.

[8] = after treatment for 10 weeks, 2 mg/kg, vs allograft kidneys

Compound: C=CC(=O)N1CCC([C@@H]2CCNc3c(C(N)=O)c(-c4ccc(Oc5ccccc5)cc4)nn32)CC1 [Compound 1, (S)-7-(1-acryloylpiperidin-4-yl)-2-(4-phenoxyphenyl)-4,5,6,7-tetrahydropyrazolo-[1,5-a]pyrimidine-3-carboxamide]
- effect on T cells (CD3+CD4+, CD3+CD8+) in peripheral blood ([1]; 2 mg/kg): sight effect; also recorded: slight effects
- elevation of CD19+CD45R+ B cells in peripheral blood ([1]; 2 mg/kg for 6 weeks): significantly inhibited increases; also recorded: significantly suppressed
- elevation of plasma cells in peripheral blood ([1]; 2 mg/kg for 6 weeks): significantly inhibited increases; also recorded: significantly suppressed
- blood creatinine [2]: remarkably inhibited the increases; also recorded: relatively low levels
- blood urea nitrogen [2]: remarkably inhibited the increases; also recorded: relatively low levels
- infiltration of B cells in allograft kidney [3]: remarkably reduced; also recorded: significantly reduced
- infiltration of T cells in allograft kidney [3]: remarkably reduced; also recorded: significantly reduced
- infiltration of macrophages in allograft kidney [3]: remarkably reduced; also recorded: decrease
- infiltration of plasma cells in allograft kidney [3]: significantly reduced
- production of DSA ([4]; treatment from second week after transplantation, 8, 12, 16 weeks): significantly reduced; also recorded: prevented further production
- level of DSA ([4]; until end of treatment at 16 weeks): relatively low level
- survival rate of allogeneic recipients [5]: significantly increased; also recorded: higher
- lesion area of interstitial fibrosis (PAS and Masson staining) (renal allografts; [8]): significantly ameliorated
- lesion area of tubular atrophy (PAS and Masson staining) (renal allografts; [8]): significantly ameliorated
- glomerular sclerosis (H&E staining) (renal allografts; allogeneic recipients, 2 mg/kg, vs vehicle): significantly ameliorated
- CAMR (fibrous intimal thickening in arteries, C4d deposition in PTC, increase of DSA) (renal allografts; allograft kidney, treatment from second week after transplantation): significantly alleviated
- deposition of C4d in peritubular capillaries (PTC) ([6]; allograft kidney): dramatically reduced
- positive (lesion) area of IgG ([6]; allograft kidneys after treatment, almost 30% without treatment): less than 10%
- secretion of IL-10 (serum) [7]: further increased
- secretion of IL-35 (serum) [7]: further increased
- secretion of TGF-β (serum) [7]: further increased
- serum level of IL-17A [7]: reduce; also recorded: effectively decreased
- serum level of TNF-α [7]: reduce; also recorded: effectively decreased
